In PubChem BioAssay (NCI):
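Assay format: 96-well plates, 48-hour exposure. The concentration for full growth arrest is given as TGI.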

Tests used:
Test in all cases: growth of human tumour cells (NCI), 48 h
[1] = test system: DLD-1 colon
[2] = test system: DMS 114 small cell lung
[3] = test system: KM20L2 colon
[4] = test system: LXFL 529 NSCLC
[5] = test system: M19-MEL melanoma
[6] = test system: RXF-631 renal
[7] = test system: SNB-78 CNS
[8] = test system: XF 498 CNS
[9] = test system: HOP-18 NSCLC

| Structure (SMILES) | TGI [1] [µM] | TGI [2] [µM] | TGI [3] [µM] | TGI [4] [µM] | TGI [5] [µM] | TGI [6] [µM] | TGI [7] [µM] | TGI [8] [µM] | TGI [9] [µM] |
| --- | --- | --- | --- | --- | --- | --- | --- | --- | --- |
| CN(C(=O)C12C3C4C1C1C4(C(=O)C45C6C7C4C4C5C6C74C)C3C12C)C(C)(C)C (configuration not stated) | > 100 | > 100 | 85.3 | > 100 | > 100 | > 100 | > 100 | > 100 | – |
| N#Cc1c(NN)nc(NN)c(C#N)c1-c1ccccc1 | > 100 | > 100 | > 100 | > 100 | > 100 | > 100 | > 100 | > 100 | > 100 |
| COC(=O)N1CCc2c(nc(N(C)CCO)[nH]c2=O)C1 | > 100 | > 100 | > 100 | > 100 | > 100 | – | > 100 | > 100 | > 100 |
| CCCCCC/C=C1\CCC(CN2CCCC2)C1=O (configuration not stated) | 18 | 29.4 | 41.3 | 11.4 | 25.6 | 42.2 | 60.2 | 31.4 | 32.9 |
| O=C1CCC(=O)N1Cc1ccccc1N=[N+]([O-])c1ccccc1CN1C(=O)CCC1=O | – | > 100 | > 100 | > 100 | > 100 | – | > 100 | > 100 | – |
| O=c1cc2ccccc2nn1Cc1cccc(Cl)c1 | > 100 | > 100 | > 100 | – | > 100 | > 100 | > 100 | 94.5 | > 100 |
| Clc1cc(Cc2cc(Cl)c(Cl)c3c2OCOC3)c2c(c1Cl)COCO2 | > 100 | > 100 | > 100 | > 100 | > 100 | – | > 100 | – | 97.9 |
| COc1cccc(NC(=O)/C(CC(=O)CC(c2ccccc2)c2c(O)c3ccccc3oc2=O)=N\NC(C)(C)C)c1OC (configuration not stated) | > 100 | > 100 | > 100 | > 100 | > 100 | – | > 100 | – | – |
| CC(=O)OC1COC(Nc2ccc(C(C)=O)cc2)C(OC(C)=O)C1OC(C)=O (configuration not stated) | > 100 | > 100 | > 100 | > 100 | > 100 | > 100 | > 100 | – | > 100 |
| CC1(CO)OC(n2cc(C(=O)NC(=O)OCc3ccccc3)c(=O)[nH]c2=O)CC1O (configuration not stated) | > 100 | > 100 | > 100 | > 100 | > 100 | > 100 | – | > 100 | > 100 |
| N#C/C(=C/c1ccc[nH]1)P(=O)(O)O | > 100 | > 100 | > 100 | > 100 | > 100 | – | > 100 | > 100 | – |
| Nc1ccc2nc(Nc3ccc(F)cc3)cnc2c1 | > 100 | > 100 | – | – | > 100 | – | – | > 100 | – |
| CC(=O)OC[C@]1(O)CC[C@@]23CC1C[C@@H]2CCC1C(C)(C)CCC[C@@]13C (some centres not stated) | 28.8 | 25.3 | 31.7 | 23.2 | 29.4 | 27.3 | 32.7 | 27.2 | – |
| Cc1cc2nc(CCC(=O)O)c(=O)[nH]c2cc1C | > 100 | > 100 | > 100 | > 100 | > 100 | > 100 | > 100 | > 100 | > 100 |
| CC(C)c1ccc(C2C3=C(N=C4SCC(=O)N42)C(=O)c2ccccc23)cc1 (configuration not stated) | > 100 | > 100 | > 100 | > 100 | > 100 | > 100 | – | > 100 | – |
